What follows are molecules tested on Staphylococcus aureus (gram-positive bacterium; ATCC 6538) (assay: bacterial reduction in a bacterial suspension in dynamic contact with the medical device). Conditions: temperature environment; dynamic contact time 1 hour; 50 grams of bacterial suspension at 10^5 cells, 1 gram of medical device where present.
Format: cell-based
Method: In Table 1, 50 grams of bacterial suspension at a concentration of 10^5 cells was subjected to dynamic contact with 1 gram of the medical device in the presence of cocamido-propyl-betaine (an amphoteric surfactant).
The same experiment was then carried out using no surfactant at all (Table 2) or non-ionic or anionic surfactants (Tables 3 and 4).

Going from `CCCCCCCCCCCCOS(=O)(=O)[O-].[Na+]` [Sodium dodecilsulphate] to Polyoxyethylenesorbitan monolaurate, the Bacterial reduction % falls from 16% to 5%.

Molecule “cocamidopropyl betaine [2 g/l of cocamidopropyl betaine]” has a Bacterial reduction % of 12%.

— patent publication US20210212957A1, “MEDICAL DEVICE FOR PREVENTING AND/OR TREATING INFECTIONS OF SKIN LESIONS” (FASTMEDITALIA S.R.L., priority 2020, published 2021)
